# “And” between values parts separate entries of the source, which are not always exact repeats. Equal values may be shown once.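 Compound exposure: 48 hours, 5 concentrations, 96-well plates. At the GI50, growth is halved. At the TGI there is no net growth.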
# Assays:
# Assay in all cases: NCI anticancer screen, dose series, 48 h
# SN12C renal = tested on: SN12C renal
# SW-620 colon = tested on: SW-620 colon
# SK-MEL-28 melanoma = tested on: SK-MEL-28 melanoma
# HCC-2998 colon = tested on: HCC-2998 colon
# TK-10 renal = tested on: TK-10 renal
# HS 578T breast = tested on: HS 578T breast
# HT29 colon = tested on: HT29 colon
# SF-539 CNS = tested on: SF-539 CNS
# K-562 leukemia = tested on: K-562 leukemia
# MCF7 breast = tested on: MCF7 breast
SMILES,GI50 (SN12C renal),TGI (SN12C renal),GI50 (SW-620 colon),TGI (SW-620 colon),GI50 (SK-MEL-28 melanoma),TGI (SK-MEL-28 melanoma),GI50 (HCC-2998 colon),TGI (HCC-2998 colon),GI50 (TK-10 renal),TGI (TK-10 renal),GI50 (HS 578T breast),TGI (HS 578T breast),GI50 (HT29 colon),TGI (HT29 colon),GI50 (SF-539 CNS),TGI (SF-539 CNS),GI50 (K-562 leukemia),TGI (K-562 leukemia),GI50 (MCF7 breast),TGI (MCF7 breast)
Clc1cc2c(c(CSc3nc4ccccc4n4cccc34)c1)OCOC2,> 100 µM,> 100 µM,> 100 µM,> 100 µM,> 100 µM,> 100 µM,> 100 µM,> 100 µM,3.49 µM,60.3 µM,5.61 µM,45 µM,> 100 µM,> 100 µM,22.9 µM,> 100 µM,> 100 µM,> 100 µM,0.501 µM,> 100 µM
CCN1CCN(c2cc(C)c3cc(NC(=O)c4ccc(OC)c(OC)c4)ccc3n2)CC1,> 100 µM,> 100 µM,4.21 µM,> 42.3 µM,19.9 µM,> 59.7 µM,> 57.3 µM,> 100 µM,> 59 µM,98.5 µM,8.55 µM,> 74.1 µM,1.31 µM,> 100 µM,5.44 µM,> 44.8 µM,2.75 µM,> 100 µM,0.572 µM,> 100 µM
NNC(=O)CNc1cccc(Br)c1,–,> 100 µM,–,> 100 µM,–,> 100 µM,–,> 100 µM,–,> 100 µM,–,> 100 µM,–,> 100 µM,–,> 100 µM,–,> 100 µM,–,> 100 µM
O=C(Cc1ccc(F)c(Cl)c1)Nc1cc(C2(C(F)(F)F)CC2)nn1CC1CCCCC1,4.46 µM,> 15 µM,3.92 µM,14.4 µM,4.82 µM,> 15 µM,4.45 µM,> 15 µM,4.78 µM,> 15 µM,2.13 µM,9.45 µM,3.96 µM,> 15 µM,4.86 µM,> 15 µM,4.28 µM,> 15 µM,4.01 µM,> 15 µM
CN1CCN(c2ccc(Nc3cc(-c4cccc(-n5ccc6cc(C7CC7)cc(F)c6c5=O)c4CO)cn(C)c3=O)nc2)CC1,3.35 µM,13.9 µM,4.74 µM,23.9 µM,4.1 µM,17 µM,10.4 µM,35.8 µM,3.69 µM,14.3 µM,4.99 µM,25.3 µM,3 µM,13.9 µM,1.82 µM,3.63 µM,3.17 µM,12 µM,3.24 µM,18.6 µM
O=C(c1ccco1)c1c(C(F)(F)F)nc2ccc(Cl)cc2[n+]1[O-],> 100 µM,> 100 µM,13.4 µM,29.6 µM,> 100 µM,> 100 µM,21.8 µM,46.1 µM,> 100 µM,> 100 µM,19.8 µM,51.4 µM,> 100 µM,> 100 µM,> 100 µM,> 100 µM,33.2 µM,> 100 µM,> 100 µM,> 100 µM
CC(=O)ON1CCCC(P(=O)(OCCSC(=O)C(C)(C)C)OCCSC(=O)C(C)(C)C)C1=O (stereo unspecified),0.36 µM,15 µM,1.59 µM,> 100 µM,1.56 µM,15.5 µM,1.42 µM,12.4 µM,3.57 µM,93.3 µM,1.53 µM,8.94 µM,1.28 µM,> 100 µM,3.96 µM,27.4 µM,0.674 µM,> 100 µM,2.01 µM,47.5 µM
C/C(N=NC(=S)N1CC2CCC(CC2)C1)=C1\C=CC=CN1O,–,> 100 µM,–,> 100 µM,–,> 100 µM,–,> 100 µM,–,> 100 µM,–,> 100 µM,–,> 57.9 µM,–,31 µM,–,> 46.8 µM,–,> 100 µM
O=C(NC[C@H](O)CN1CCc2ccccc2C1)c1cc(NC2COC2)ncn1,18.5 µM,> 100 µM,11 µM,61.7 µM,31.6 µM,> 100 µM,15.4 µM,29.8 µM,22 µM,88.9 µM,19.1 µM,81.4 µM,20.8 µM,> 100 µM,5.09 µM,45.6 µM,20.3 µM,> 100 µM,3.93 µM,> 100 µM
O=c1oc2ccc(-c3ccc(F)cc3F)cc2c(=O)n1-c1cccc(C(F)(F)F)c1,1 µM,10.4 µM,2.64 µM,12.8 µM,0.756 µM,6.56 µM,2.64 µM,7.94 µM,3.52 µM,15.8 µM,1.3 µM,7.28 µM,3.24 µM,11.7 µM,1.41 µM,6.95 µM,1.2 µM,18.2 µM,3.22 µM,> 100 µM
CCC(C)(C)c1ccc(OCCCCNC(=O)c2ccc3ccccc3c2O)c(C(C)(C)CC)c1,–,> 100 µM,–,87 µM,–,> 100 µM,–,> 100 µM,–,80 µM,–,> 100 µM,–,> 100 µM,–,> 100 µM,–,> 100 µM,–,> 100 µM
CCCC(=O)Nc1cn(COC)c(C(=O)N2C[C@@H]3C[C@]34C2=CC(=O)c2[nH]cc(C)c24)n1,–,30.9 µM and 22.9 µM,–,50 µM and 47.7 µM,–,50 µM and 32.2 µM,6.23 µM,13.1 µM and 19.1 µM,3 µM,19.1 µM and 6.18 µM,12.2 µM,44.6 µM and 41.2 µM,11.2 µM,21.1 µM and 37.7 µM,4.27 µM,50 µM and 15.8 µM,3.02 µM,50 µM and > 100 µM,–,50 µM and 11.6 µM
NS(=O)(=O)c1ccc(N=Nc2c(O)c(C(=O)O)cc3ccccc23)cc1,–,> 100 µM,–,> 100 µM,–,> 100 µM,–,> 100 µM,–,> 100 µM,–,> 100 µM,–,> 100 µM,–,> 100 µM,–,> 100 µM,–,> 100 µM
Cc1c(N(C)C)ccc2c(=O)c3cccc(CC(=O)O)c3oc12,–,> 100 µM,–,> 53.5 µM,–,> 100 µM,–,> 100 µM,–,> 100 µM,–,> 100 µM,–,> 100 µM,–,> 100 µM,–,> 100 µM,–,> 100 µM
O=C(Nc1cc(C(F)(F)F)cc(C(F)(F)F)c1)c1cc(Cl)ccc1O,0.224 µM and 0.202 µM,> 2.73 µM and 1.54 µM,0.316 µM and 0.312 µM,3.26 µM and 10.4 µM,0.285 µM and 0.199 µM,1.84 µM and 1.31 µM,0.307 µM and 0.349 µM,1.33 µM and 3.63 µM,0.442 µM and 0.387 µM,> 10 µM and 11.1 µM,0.222 µM and 0.212 µM,0.807 µM and 0.821 µM,0.339 µM and 0.401 µM,> 10 µM and 12 µM,0.3 µM and 0.264 µM,1.88 µM and 1.59 µM,0.189 µM and 0.161 µM,> 61.3 µM,0.302 µM and 0.269 µM,> 10 µM and 5.26 µM

# From PubChem BioAssay (NCI)
